Experimental data published in patent US20090281166A1, “Treatment of Cancer by Inhibition of HSP27” (THE UNIVERSITY OF BRITISH COLUMBIA, priority 2008, published 2009).

Columns and labels:
Akt = experiment: Western blot after siAkt or GSK690693C treatment in LNCaP cells; format: cell-based, human
Method: Twenty-four hours after culturing in 10 cm dishes at 7×10^5 cells per dish, Hsp27 siRNA (siHsp27) or scrambled siRNA (Scr) duplexes were transfected into cells. Briefly, the RNA duplex was diluted in Opti-MEN® serum-free medium and Oligofectamin (Invitrogen-Life Technologies). After 20 min, cells were transfected at 37? for 4-6 h and then were placed in standard medium. Forty-eight hours after transfection, cells were harvested and were analyzed in each experiment. To knockdown Akt, Akt1 siRNA (siAkt) duplexes (Cell signaling) were used. Twenty-four hours after transfection for 24 h, cells were harvested and then were analyzed as well. An siRNA duplex corresponding to the human Hsp27 site (sequence of one strand 5′-[…]-3′, SEQ ID NO: 2; Dharmacon, Lafayette, Colo.) was used. […]
Proteins (20-40 μg/lane) extracted in RIPA buffer from cells, were electrophoresed in SDS-polyacrylamide gels (SDS/PAGE) and transferred to PDVF membranes (Milipore, Bedford, Mass.) by a wet transfer method. […] Bands were detected by using an enhanced chemiluminescence Western blotting analysis system (Amersham Life Science, Arlington Heights, Ill.).
LNCaPHsp27 and LNCaP with empty vector (LNCaPmock) cells were assessed 24 h after culture. Cell lysates were collected 24 hours after culture and bands were detected with the indicated antibodies by Western blot assay. […]

PC-3 cells = experiment: Combination treatment with siHsp27 and LY-294002 in PC-3 cells; format: cell-based, human
Method: LY-294002 (2-(4-morpholinyl)-8-phenyl-4H-1-benzopyran-4-one) is a selective phosphatidylinositol 3-kinase (PI3K) inhibitor. Combination treatment with siHsp27 and LY-294002 treatment was assessed in PC-3 cells.

hsp27 [1] = details: Tanaka et al., Int J Gynecol Cancer 2004; cited from earlier work
Hsp27 [2] = details: preclinical studies, cited from earlier work

## CCn1c(-c2nonc2N)nc2c(C#CC(C)(C)O)ncc(OC[C@H]3CCCNC3)c21 [GSK690693C]
Akt
  phospho-Akt level (Western blot): up-regulation of phospho-Akt
  phospho-GSK-3B and phospho-PEA15 levels (Western blot): dose-dependent decrease of phospho-GSK-3B and phospho-PEA15

## O=c1cc(N2CCOCC2)oc2c(-c3ccccc3)cccc12 [LY-294002, 2-(4-morpholinyl)-8-phenyl-4H-1-benzopyran-4-one]
PC-3 cells
  PTEN expression: reduced PTEN expression
PC-3 cells; combination with siHsp27
  effect on growth inhibition by Hsp27 knockdown: reduced the growth inhibitory effect by Hsp27 knockdown in dose-dependent manner

## CC(=O)O[C@H]1C(=O)[C@@]2(C)[C@H]([C@H](OC(=O)c3ccccc3)[C@]3(O)C[C@H](OC(=O)[C@H](O)[C@@H](NC(=O)c4ccccc4)c4ccccc4)C(C)=C1C3(C)C)[C@]1(OC(C)=O)CO[C@@H]1C[C@@H]2O [Paclitaxel]
hsp27 [1]
  hsp27 expression: inhibitor of hsp27 expression

## OGX-427: antisense oligonucleotide targeting hsp27, gggacgcggc gctcggtcat, SEQ ID No. 1, described in U.S. Pat. No. 7,101,991 (antisense GGGACGCGGCGCTCGGTCAT; listed as DNA, chemistry not given here; listed as Homo sapiens)
Hsp27 [2]; combination with cytotoxic drugs
  chemosensitization: acts as a chemosensitizer in combination with several cytotoxic drugs including docetaxel
Hsp27 [2]; single agent
  anti-tumor activity: has single agent anti-tumor activity
Hsp27 [2]
  apoptosis in human cancer cell lines: induces apoptosis in several human cancer cell lines
  levels of Hsp27: significantly decreases levels of Hsp27
